In paper PMC10787068, “Targeting the Mitochondrial Chaperone TRAP1 Alleviates Vascular Pathologies in Ischemic Retinopathy” (Advanced Science, 2023):
Entries after “also recorded” stand apart in the source; their conditions may differ. Non-standard residues stand in square brackets, D forms with d. Residues, ends and D or L forms follow the SMILES beside them. *: point of attachment. Nle = CCCC[C@H](N)C(=O)O; Cbz = O=C(OCc1ccccc1)*

What was measured:
Assay type in all cases: cell-based, human
HIF1α = HIF1α degradation in MIO‐M1 cells under hypoxia (western blotting); conditions: western blotting; for effect of co-treatment on HIF1α degradation triggered by TRAP1 inhibition: MIO‐M1 cells with gamitrinib or MitoQ, 6 h, hypoxia, BAPTA 10 µM, ALLN 10 µM
calpain‐1 = experiment: Calpain‐1 activation (autolysis, western blotting) in MIO‐M1 cells; conditions: MIO‐M1 cells with 3 µM gamitrinib or 0.5 µM MitoQ, 6 h, hypoxia; BAPTA 10 µM, ALLN 10 µM
Experimental: (§1) Figure 5 TRAP1 inhibition induces mPTP opening, mitochondrial calcium discharge, and calpain‐1 activation. A) Visualization of cytoplasmic calcium. Fluo‐4 AM‐labeled MIO‐M1 cells were incubated with the TRAP1 inhibitors gamitrinib and MitoQ^[ [32], [41] ^] for 6 h or thapsigargin for 30 min under hypoxia, and analyzed by confocal microscopy. Scale bars, 10 µm and 2 µm (inset). […] MIO‐M1 cells were treated with a TRAP1 inhibitor, 3 µM gamitrinib or 0.5 µM MitoQ, for 6 h under hypoxia (n = 4). Enzyme activity was measured using a fluorogenic calpain substrate as described in the Experimental Section. C) Restored HIF1α expression upon CypD inhibition. MIO‐M1 cells were incubated with control or CypD‐targeting siRNAs, treated with the TRAP1 inhibitor MitoQ for 6 h under hypoxia, harvested, and analyzed by western blotting. Black and red arrows indicate pro and autolyzed forms of calpain‐1, respectively. […] MIO‐M1 cells were incubated with TRAP1‐targeting siRNAs for 48 h, exposed to hypoxia for 6 h, harvested, and analyzed by qPCR (n = 4). […] Cells were then analyzed by flow cytometry to detect cytoplasmic calcium. […] MIO‐M1 cells were incubated with TRAP1 inhibitors, 3 µM gamitrinib, and 0.5 µM MitoQ, and a cell‐permeable calcium chelator, BAPTA (10 µM), for 6 h as indicated under hypoxia and analyzed by western blotting. […] Data information: Data are expressed as mean ± SEM. […]

MIO‐M1 cells = experiment: Cytoplasmic calcium (Fluo‐4 AM) in MIO‐M1 cells; conditions: Fluo‐4 AM‐labeled MIO‐M1 cells under hypoxia; MitoQ 6 h, thapsigargin 30 min
Experimental: as §1

cytoplasmic Hsp90 = experiment: Cytoplasmic Hsp90 inhibition in MIO-M1 cells (western blotting); conditions: 6 hr
Experimental: Cells and tissue samples were lysed using RIPA buffer (50 mM Tris, pH 8.0, 150 mM NaCl, 1% NP‐40, and 0.25% N‐deoxycholate) containing protease and phosphatase inhibitor cocktails (Roche). Lysates were separated by SDS‐PAGE and transferred to PVDF membranes. The membranes were blocked with 10% skim milk prepared in TBST (TBS (50 mM Tris and 150 mM NaCl, pH 7.6) containing 0.05% Tween‐20) for 1 h at RT and incubated with primary antibodies in antibody diluent solution (TBS containing 3 mM sodium azide and 0.1% BSA) overnight at 4 °C. After washing with TBST, the membranes were incubated with secondary antibodies for 1 h in 10% skim milk prepared in TBST. Finally, the membranes were washed three times with TBST, treated with ECL solution (Bio‐Rad; Hercules, CA, USA), and analyzed using a LAS4000 system (GE Healthcare; Chicago, IL, USA).
inhibitor) and gamitrinib as indicated for 6 hr, harvested, and analyzed by western blotting.
C) Cytoplasmic Hsp90 inhibition. MIO-M1
cells were incubated with DMAG (an Hsp90 inhibitor) as indicated for 6 hr under normoxia
or hypoxia and analyzed by western blotting.

calpain = experiment: Calpain activity assay in MIO‐M1 cells; conditions: 3 µM gamitrinib or 0.5 µM MitoQ, 6 h under hypoxia, fluorogenic calpain substrate, n = 4
Experimental: as §1

Trap1 KO MIO-M1 cells = experiment: TRAP1 inhibitor effects in Trap1 KO MIO‐M1 cells
Experimental: MIO‐M1 Trap1 KO cell lines were generated using CRISPR/Cas9‐derived RNA‐guided endonucleases (Toolgen; Seoul, Republic of Korea). MIO‐M1 cells were co‐transfected with the Cas9 vector and TRAP1‐sgRNA expression vector (sgRNA sequence 1; 5′‐[…]‐3′ and sequence 2; 5′‐[…]‐3′) using jetPRIME transfection reagent (Polyplus; Illkirch‐Graffenstaden, France). Transfected cells were selected in culture medium containing […] puromycin (Sigma). Single‐cell colonies were collected using a cloning cylinder (I.D. × H 6.4 mm × 8 mm; Sigma) and analyzed using T7 endonuclease I to confirm Trap1 KO.
Supplementary Figure 16. Calpain-1 autolysis and HIF1α degradation in Trap1 […]
A) HIF1α degradation and calpain-1 autolysis in Trap1 knockout (KO) MIO-M1 cells. Trap1 KO MIO-M1 cells were generated as described in the Experimental Section and incubated in hypoxia for 6 hr, followed by analysis using western blotting. Under hypoxia, HIF1α degradation and autoproteolysis of calpain-1 were found in Trap1 KO MIO-M1 cells, when compared with wild type (WT) cells. […]
cell lines were established using MIO-M1 cells. WT and KO cells were incubated with MitoQ for 6 hr under hypoxia and analyzed by western blotting. Trap1 KO reduced the expression of […]
Quantification of the HIF1α protein level. HIF1α western blot density was analyzed and compared. Data are expressed as mean ± SEM from four independent experiments.
C) Cytoplasmic calcium concentration. WT and Trap1-KO MIO-M1 cells were labeled with […]
Fluo-4 AM, incubated with 3 μM gamitrinib or 1 μM MitoQ for 6 hr under hypoxia, collected, and analyzed by flow cytometry. Data information: Data are expressed as mean ± SEM.
Student t-test, ***P < 0.001; ns, not significant. […]

O=C(O)CN(CC(=O)O)c1ccccc1OCCOc1ccccc1N(CC(=O)O)CC(=O)O [BAPTA, 1,2‐bis (o‐aminophenoxy) ethane‐N, N, N', N'‐tetraacetic acid]
effect of co-treatment on HIF1α degradation triggered by TRAP1 inhibition (HIF1α): fully reversed
effect of co-treatment on calpain‐1 activation triggered by TRAP1 inhibition (calpain‐1): fully reversed

CCCC[C@@H](C=O)NC(=O)[C@H](CC(C)C)NC(=O)[C@H](CC(C)C)NC(C)=O [ALLN] (Ac-Leu-Leu-[Nle]-aldehyde)
effect of co-treatment on HIF1α degradation triggered by TRAP1 inhibition (HIF1α): fully reversed
effect of co-treatment on calpain‐1 activation triggered by TRAP1 inhibition (calpain‐1): fully reversed

C/C=C(/C)C(=O)O[C@H]1C(C)=C2[C@H]([C@@H]1OC(=O)CCCCCCC)[C@@](C)(OC(C)=O)C[C@H](OC(=O)CCC)[C@@]1(O)[C@H]2OC(=O)[C@@]1(C)O [thapsigargin]
cytoplasmic calcium (MIO‐M1 cells): substantial calcium release

CC(=O)N[C@@H](CSC(=O)[C@]1([C@@H](O)C(C)C)NC(=O)[C@H](C)[C@@H]1O)C(=O)O [lactacystin]
effect of co-treatment on HIF1α degradation triggered by TRAP1 inhibition (HIF1α): not effectively restored; also recorded: did not

O=C(O)CCC(=O)O [succinate]
effect of co-treatment on HIF1α degradation triggered by TRAP1 inhibition (HIF1α): did not affect; also recorded: unaffected

COC(=O)CNC(=O)C(=O)OC [DMOG, dimethyloxalylglycine]
effect of co-treatment on HIF1α degradation triggered by TRAP1 inhibition (HIF1α): did not affect; also recorded: unaffected

CO[C@H]1/C=C\C=C(/C)C(=O)NC2=CC(=O)C(NCCN(C)C)=C(C[C@@H](C)C[C@H](OC)[C@H](O)[C@@H](C)/C=C(\C)[C@@H]1OC(N)=O)C2=O [DMAG, 17‐Dimethyl‐aminothylamino‐17‐demethoxy‐geldanamycin]
stability of HIF1α (HIF1α; MIO-M1 cells, 6 hr under normoxia or hypoxia): did not affect
stress response protein Hsp70 level (cytoplasmic Hsp90): upregulated

CC(C)C[C@@H](C=O)NC(=O)[C@H](CC(C)C)NC(=O)[C@H](CC(C)C)NC(=O)OCc1ccccc1 [MG132] (Cbz-Leu-Leu-Leu-aldehyde)
effect of co-treatment on HIF1α degradation triggered by TRAP1 inhibition (HIF1α): completely restored; also recorded: completely blocked

gamitrinib
calpain enzyme activity (calpain): Calpain activation
cytosolic calcium concentration in Trap1−/− cells (Trap1 KO MIO-M1 cells; 3 μM gamitrinib or 1 μM MitoQ, 6 hr under hypoxia, Fluo-4 AM flow cytometry): did not affect
HIF1α expression in Trap1−/− cells (Trap1 KO MIO-M1 cells; 6 hr under hypoxia, western blotting): did not affect
calpain‐1 activation in Trap1−/− cells (Trap1 KO MIO-M1 cells; hypoxia): did not affect
